Patent US12180187B2, “1-phenyl-5-azinylpyrazolyl-3-oxyalkyl acids and their use for controlling unwanted plant growth” (BAYER AKTIENGESELLSCHAFT, priority 2019, dated 2024)

Key:
ALOMY [1] = experiment: Post-emergence action against ALOMY, 320 g/ha; format: in vivo, Alopecurus myosuroides; conditions: dosage 320 g/ha, visual rating about 3 weeks after treatment vs untreated controls (100% = plants died)
Method in brief: (§1)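 Activity is a visual rating against untreated controls, with 0% like control and 100% dead plants, made about 3 weeks after treatment. Plants grown in sandy loam in the greenhouse received a post-emergence spray at the one-leaf stage of 320 g/ha, formulated as WP or EC with 0.5% additive in 600 l/ha water.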

LOLRI [2] = experiment: Pre-emergence action at 320 g/ha against LOLRI; format: in vivo, Lolium rigidum; conditions: visual scoring after about 3 weeks vs untreated controls
Method in brief: (§2)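 Percent herbicidal activity was assessed by eye roughly three weeks post-application, comparing with untreated plants. Treatment consisted of applying formulated compound in water plus 0.5% additive to covering soil at 600 l/ha before emergence.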

VERPE [3] = experiment: Post-emergence action against VERPE, 1.28 kg/ha; format: in vivo, Veronica persica; conditions: dosage 1280 g/ha, visual rating about 3 weeks after treatment vs untreated controls (100% = plants died)
Method in brief: (§3)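 Weeds grown in sandy loam in a greenhouse were sprayed at the one-leaf stage, 2–3 weeks after sowing, with WP or EC formulations in water containing 0.5% additive at 600 L/ha. About 3 weeks later, damage was scored visually versus untreated controls (0% = like control, 100% = dead).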

VIOTR = experiment: Post-emergence action at 320 g/ha against VIOTR; format: in vivo, Viola tricolor; conditions: visual rating about 3 weeks after treatment vs untreated controls
Method in brief: as §1

AVEFA [4] = experiment: Post-emergence action at 320 g/ha against AVEFA; format: in vivo; conditions: visual rating about 3 weeks after treatment vs untreated controls
Method in brief: as §1

ALOMY [5] = experiment: Pre-emergence action against ALOMY, 1280 g/ha; format: in vivo, Alopecurus myosuroides; conditions: visual scoring after about 3 weeks vs untreated controls, 100% = plants have died, 0% = like control plants
Method in brief: (§4)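 Each pot was doubly sown in sandy loam and covered, then its soil surface was treated with compound suspension or emulsion containing 0.5% additive at 600 L/ha water. Plants grew in a greenhouse; effect was rated visually as percentages versus controls after about 3 weeks.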

DIGSA [6] = experiment: Post-emergence action against DIGSA, 1.28 kg/ha; format: in vivo, Digitaria sanguinalis; conditions: dosage 1280 g/ha, visual rating about 3 weeks after treatment vs untreated controls
Method in brief: as §3

VERPE [7] = experiment: Pre-emergence action against VERPE, 1280 g/ha; format: in vivo, Veronica persica; conditions: scored visually after about 3 weeks vs untreated controls (100% = plants have died)
Method in brief: as §4

DIGSA [8] = experiment: Pre-emergence action against DIGSA, 1280 g/ha; format: in vivo, Digitaria sanguinalis; conditions: visual scoring after about 3 weeks vs untreated controls, 100% = plants have died, 0% = like control plants
Method in brief: as §4

LOLRI [9] = experiment: Pre-emergence action against LOLRI, 1280 g/ha; format: in vivo, Lolium rigidum; conditions: visual scoring after about 3 weeks vs untreated controls, 100% = plants have died, 0% = like control plants
Method in brief: as §4

AVEFA [10] = experiment: Pre-emergence action at 320 g/ha against AVEFA; format: in vivo; conditions: visual scoring after about 3 weeks vs untreated controls
Method in brief: as §2

ALOMY [11] = experiment: Post-emergence action against ALOMY, 1.28 kg/ha; format: in vivo, Alopecurus myosuroides; conditions: dosage 1280 g/ha, visual rating about 3 weeks after treatment vs untreated controls
Method in brief: as §3

MATIN = experiment: Post-emergence action against MATIN, 1.28 kg/ha; format: in vivo, Tripleurospermum inodorum (Matricaria inodora); conditions: dosage 1280 g/ha, visual rating about 3 weeks after treatment vs untreated controls (100% = plants died)
Method in brief: as §3

PHBPU = experiment: Pre-emergence action at 320 g/ha against PHBPU; format: in vivo; conditions: visual scoring after about 3 weeks vs untreated controls
Method in brief: as §2

Row | SMILES | Post-emergence action against ALOMY (ALOMY [1]) | Pre-emergence action against LOLRI in % (LOLRI [2]) | Post-emergence action against VERPE (VERPE [3]) | Post-emergence action against VIOTR in % (VIOTR) | Post-emergence action against AVEFA in % (AVEFA [4]) | Pre-emergence action against ALOMY (ALOMY [5]) | Post-emergence action against DIGSA (DIGSA [6]) | Pre-emergence action against VERPE (VERPE [7]) | Pre-emergence action against DIGSA (DIGSA [8]) | Pre-emergence action against LOLRI (LOLRI [9]) | Pre-emergence action against AVEFA in % (AVEFA [10]) | Post-emergence action against ALOMY (ALOMY [11]) | Post-emergence action against MATIN (MATIN) | Pre-emergence action against PHBPU in % (PHBPU)
1 | CS(=O)(=O)NC(=O)COc1nn(-c2ccccc2F)c(-c2ccc(F)nc2)c1Br [Example X-004] | 100% | 100% | 100% | 80% | 90% | 90% | 100% | 90% | 90% | 100% | 90% | 100% | 90% | 
2 | CN(C)S(=O)(=O)NC(=O)COc1nn(-c2ccccc2F)c(-c2ccc(F)nc2)c1Br [Example X-005] | 90% | 100% | 100% | 80% | 90% | 100% |  | 100% | 100% | 100% | 100% | 100% | 100% | 90%
3 | COC(=O)CNC(=O)COc1nn(-c2ccccc2F)c(-c2ccc(F)nc2)c1C(F)(F)F [Example X-007] | 100% | 100% | 90% | 80% | 80% | 100% | 100% | 100% | 100% | 100% | 100% | 100% | 90% | 
4 | C[C@@H](Oc1nn(-c2ccccc2F)c(-c2cncnc2)c1Br)C(=O)O [VI-012] |  | 90% | 90% | 100% | 90% | 90% | 90% | 100% | 90% | 100% | 80% | 100% |  | 90%
5 | COC(=O)[C@@H](C)Oc1nn(-c2ccccc2)c(-c2cccnc2)c1Br [VII-008] | 100% | 100% | 100% | 90% | 90% | 100% |  | 100% | 100% | 100% | 80% | 100% | 90% | 80%
6 | COC(=O)COc1nn(-c2ccccc2)c(-c2ccc(F)nc2)c1Br [VII-018] | 90% | 100% | 90% | 90% | 80% | 100% | 100% | 100% | 100% | 100% | 80% | 100% | 90% | 
7 | O=C(O)COc1nn(-c2ccccc2F)c(-c2ccc(F)nc2)c1I [VII-037] | 100% | 100% | 100% | 80% | 80% | 100% | 90% | 100% | 100% | 100% | 90% | 100% | 90% | 
8 | COC(=O)COc1nn(-c2ccccc2F)c(-c2ccc(F)nc2)c1F [VII-040] | 100% | 100% | 100% | 90% | 90% | 100% | 100% | 100% | 100% | 100% | 100% | 100% | 90% | 
9 | COCCOC(=O)COc1nn(-c2ccccc2F)c(-c2ccc(F)nc2)c1Br [VII-052] | 90% | 100% | 100% | 80% | 90% | 100% | 100% | 100% | 100% | 100% | 90% | 100% | 100% | 
10 | COC(=O)COc1nn(-c2cc(F)ccc2F)c(-c2ccc(F)nc2)c1Br [VII-089] | 90% | 100% | 90% |  | 80% | 100% | 100% | 100% | 100% | 100% | 90% | 100% | 90% | 80%
11 | COC(=O)CCOC(=O)COc1nn(-c2ccccc2F)c(-c2ccc(F)nc2)c1Br [VII-111] | 100% | 100% | 90% | 90% | 90% | 100% | 100% | 100% | 100% | 100% | 90% | 100% | 100% | 
12 | COC(=O)[C@@H](C)Oc1nn(-c2cc(F)ccc2F)c(-c2cncc(F)c2)c1Br [VII-132] | 90% | 100% | 90% | 80% | 80% | 100% | 100% | 100% | 100% | 100% | 100% | 100% | 90% | 
13 | COC(=O)[C@@H](C)Oc1nn(-c2ccccc2F)c(-c2ccnc(F)c2)c1Br [VIII-006] | 100% | 100% | 90% |  | 80% | 100% | 90% | 100% | 100% | 100% | 80% | 100% | 100% | 90%
